Where a SMILES comes first, the peptide text is derived from it. Where no end group is shown, it is not given here. [ ]: non-standard residue; d: D form.

The values that follow come from patent US20120245104A1, “NOVEL RETRO-INVERSO LEPTIN PEPTIDE ANTAGONISTS” (priority 2011, published 2012).

For the first test, the system named is MCF-7 cells. Type of test: cell-based.
Settings: not given
An excerpt:
These peptides were compared to full length LPA-1 with respect to their abilities to inhibit leptin-induced cell growth. […] The same approach was employed with LPA-2 creating […] of the leptin molecule). […] Another LPA-2 scrambled peptide that may be used is […] NO: 3]. […] Retro-inverso peptides are peptides constructed with the reverse sequence and containing all D-amino acids. […] Retro-inverso LPA-1(24-6) sequence […] NO: 31] and retro-inverso LPA-2(89-72) […] NO: 32]. […] Studies were carried out using both MCF-7 and HT-29 cells. […] MCF-7 and HT-29 cells were cultured in DMEM-F12 medium containing 5% fetal bovine serum (FBS), 5 μg/ml insulin, 1% amphopthericin B, 100 μg/ml streptomycin and 100 U/ml penicillin until they were 80% confluent. The cells were washed twice with 100 mM phosphate saline buffer (PBS), pH 7.2 and cultured for additional 2 days in the same medium but without FBS (basal medium). Cells were washed as described before and cultured in basal medium containing the leptin peptides of the present invention or controls as described above.
Compound `CC[C@@H](C)[C@@H](NC(=O)[C@@H](CO)NC(=O)[C@@H](CC(N)=O)NC(=O)[C@@H](CC(=O)O)NC(=O)[C@@H](CC(C)C)NC(=O)[C@@H](CCC(=O)O)NC(=O)[C@@H](CC(N)=O)NC(=O)[C@@H](CC(C)C)NC(=O)[C@@H](CCCNC(=N)N)NC(=O)[C@@H](CC(=O)O)NC(=O)[C@@H](CC(C)C)NC(=O)[C@@H](CC(C)C)NC(=O)[C@@H](Cc1c[nH]cn1)NC(=O)[C@H](N)C(C)C)C(=O)N[C@H](CCC(N)=O)C(=O)N[C@@H](C(=O)N[C@@H](C(=O)N[C@H](CC(N)=O)C(N)=O)C(C)C)[C@H](C)CC` [D-D79(1), VHLLDRLNELDNSIQIVN] (H-[dV][dH][dL][dL][dD][dR][dL][dN][dE][dL][dD][dN][dS][dI][dQ][dI][dV][dN]-NH2) registered a half-inhibitory concentration (IC50) of 0.0194 µM.

For the compound `CC[C@@H](C)[C@@H](N)C(=O)N[C@H](CC(=O)O)C(=O)N[C@H](CC(N)=O)C(=O)N[C@@H](C(=O)N[C@H](CCCNC(=N)N)C(=O)N[C@@H](C(=O)N[C@@H](C(=O)N[C@@H](C(=O)N[C@@H](C(=O)N[C@H](CCCCN)C(=O)N[C@@H](C(=O)N[C@H](CC(C)C)C(=O)N[C@@H](C(=O)N[C@H](CCCCN)C(=O)N[C@@H](C(=O)N[C@H](CC(=O)O)C(=O)N[C@H](CC(=O)O)C(=O)N[C@H](CCC(N)=O)C(=O)N[C@@H](C(N)=O)C(C)C)[C@H](C)CC)[C@H](C)O)[C@H](C)CC)[C@H](C)O)[C@H](C)CC)C(C)C)[C@H](C)O)[C@H](C)CC` [D-I10] (H-[dI][dD][dN][dI][dR][dT][dV][dI][dT][dK][dI][dL][dT][dK][dI][dD][dD][dQ][dV]-NH2), the IC50 turned out to be 0.0176 µM. The same measure, in the same setting: the value for `CC[C@@H](C)[C@@H](NC(=O)[C@@H](CC(C)C)NC(=O)[C@@H](CCC(=O)O)NC(=O)[C@@H](CC(N)=O)NC(=O)[C@@H](CC(C)C)NC(=O)[C@@H](CCCNC(=N)N)NC(=O)[C@@H](CC(=O)O)NC(=O)[C@@H](CC(C)C)NC(=O)[C@@H](CC(C)C)NC(=O)[C@@H](Cc1c[nH]cn1)NC(=O)[C@H](N)C(C)C)C(=O)N[C@H](CC(N)=O)C(=O)N[C@H](CO)C(=O)N[C@@H](C(=O)N[C@H](CCC(N)=O)C(=O)N[C@@H](C(=O)N[C@@H](C(=O)N[C@H](CC(N)=O)C(N)=O)C(C)C)[C@H](C)CC)[C@H](C)CC` [D-I79] (H-[dV][dH][dL][dL][dD][dR][dL][dN][dE][dL][dI][dN][dS][dI][dQ][dI][dV][dN]-NH2) was 0.0097 µM. The same measure, in the same setting: the figure for `CC[C@@H](C)[C@@H](N)C(=O)N[C@H](CC(=O)O)C(=O)N[C@H](CC(N)=O)C(=O)N[C@@H](C(=O)N[C@H](CCCNC(=N)N)C(=O)N[C@@H](C(=O)N[C@@H](C(=O)N[C@@H](C(=O)N[C@@H](C(=O)N[C@H](CCCCN)C(=O)N[C@@H](C(=O)N[C@H](CC(C)C)C(=O)N[C@@H](C(=O)N[C@H](CCCCN)C(=O)N[C@H](CC(C)C)C(=O)N[C@H](CC(=O)O)C(=O)N[C@H](CC(=O)O)C(=O)N[C@H](CCC(N)=O)C(=O)N[C@@H](C(N)=O)C(C)C)[C@H](C)O)[C@H](C)CC)[C@H](C)O)[C@H](C)CC)C(C)C)[C@H](C)O)[C@H](C)CC` [D-L10] (H-[dI][dD][dN][dI][dR][dT][dV][dI][dT][dK][dI][dL][dT][dK][dL][dD][dD][dQ][dV]-NH2) is 0.0118 µM; for `CC[C@@H](C)[C@@H](NC(=O)[C@@H](CO)NC(=O)[C@@H](CC(N)=O)NC(=O)[C@@H](CC(C)C)NC(=O)[C@@H](CC(C)C)NC(=O)[C@@H](CCC(=O)O)NC(=O)[C@@H](CC(N)=O)NC(=O)[C@@H](CC(C)C)NC(=O)[C@@H](CCCNC(=N)N)NC(=O)[C@@H](CC(=O)O)NC(=O)[C@@H](CC(C)C)NC(=O)[C@@H](CC(C)C)NC(=O)[C@@H](Cc1c[nH]cn1)NC(=O)[C@H](N)C(C)C)C(=O)N[C@H](CCC(N)=O)C(=O)N[C@@H](C(=O)N[C@@H](C(=O)N[C@H](CC(N)=O)C(N)=O)C(C)C)[C@H](C)CC` [D-L79] (H-[dV][dH][dL][dL][dD][dR][dL][dN][dE][dL][dL][dN][dS][dI][dQ][dI][dV][dN]-NH2) it is 0.0187 µM. In the case of `CC[C@@H](C)[C@@H](N)C(=O)N[C@H](CC(=O)O)C(=O)N[C@H](CC(N)=O)C(=O)N[C@@H](C(=O)N[C@H](CCCNC(=N)N)C(=O)N[C@@H](C(=O)N[C@@H](C(=O)N[C@@H](C(=O)N[C@@H](C(=O)N[C@H](CCCCN)C(=O)N[C@@H](C(=O)N[C@H](CC(C)C)C(=O)N[C@@H](C(=O)N[C@H](CCCCN)C(=O)N[C@@H](C(=O)N[C@H](CC(=O)O)C(=O)N[C@H](CC(=O)O)C(=O)N[C@H](CCC(N)=O)C(=O)N[C@@H](C(N)=O)C(C)C)[C@H](C)O)[C@H](C)O)[C@H](C)CC)[C@H](C)O)[C@H](C)CC)C(C)C)[C@H](C)O)[C@H](C)CC` [D-T10(1), IDNIRTVITKILTKTDDQV] (H-[dI][dD][dN][dI][dR][dT][dV][dI][dT][dK][dI][dL][dT][dK][dT][dD][dD][dQ][dV]-NH2), half-maximal inhibition (IC50) was put at 0.0169 µM. Still for that read-out and setting: the figure for `CC[C@@H](C)[C@@H](N)C(=O)N[C@H](CC(=O)O)C(=O)N[C@H](CC(N)=O)C(=O)N[C@@H](C(=O)N[C@H](CCCNC(=N)N)C(=O)N[C@@H](C(=O)N[C@@H](C(=O)N[C@@H](C(=O)N[C@@H](C(=O)N[C@H](CCCCN)C(=O)N[C@@H](C(=O)N[C@H](CC(C)C)C(=O)N[C@@H](C(=O)N[C@H](CCCCN)C(=O)N[C@@H](C(=O)N[C@H](CC(=O)O)C(=O)N[C@H](CC(=O)O)C(=O)N[C@H](CCC(N)=O)C(=O)N[C@@H](C(N)=O)C(C)C)C(C)C)[C@H](C)O)[C@H](C)CC)[C@H](C)O)[C@H](C)CC)C(C)C)[C@H](C)O)[C@H](C)CC` [D-V10] (H-[dI][dD][dN][dI][dR][dT][dV][dI][dT][dK][dI][dL][dT][dK][dV][dD][dD][dQ][dV]-NH2) is 0.0174 µM. The compound `CC[C@@H](C)[C@@H](NC(=O)[C@@H](CO)NC(=O)[C@@H](CC(N)=O)NC(=O)[C@H](NC(=O)[C@@H](CC(C)C)NC(=O)[C@@H](CCC(=O)O)NC(=O)[C@@H](CC(N)=O)NC(=O)[C@@H](CC(C)C)NC(=O)[C@@H](CCCNC(=N)N)NC(=O)[C@@H](CC(=O)O)NC(=O)[C@@H](CC(C)C)NC(=O)[C@@H](CC(C)C)NC(=O)[C@@H](Cc1c[nH]cn1)NC(=O)[C@H](N)C(C)C)C(C)C)C(=O)N[C@H](CCC(N)=O)C(=O)N[C@@H](C(=O)N[C@@H](C(=O)N[C@H](CC(N)=O)C(N)=O)C(C)C)[C@H](C)CC` [D-V79] (H-[dV][dH][dL][dL][dD][dR][dL][dN][dE][dL][dV][dN][dS][dI][dQ][dI][dV][dN]-NH2) displayed an IC50 of 0.0136 µM.

Regarding NVIQISNALENLRDLLHV-NH2, the IC50 turned out to be 0.054 µM. On the same count and under the same terms, the figure for “NVIQISNDLENLRDLLHV-NH2 [D79 (original amino acid)]” is 0.032 µM. Still for that read-out and setting: the figure for NVIQISNILENLRDLLHV-NH2 is 0.016 µM; for NVIQISNLLENLRDLLHV-NH2 it is 0.016 µM; for NVIQISNVLENLRDLLHV-NH2 it is 0.0156 µM.

VQDDAKTLIKTIVTRINDI-NH2 yielded an IC50 of 0.088 µM. On the same count and under the same terms, the value for VQDDIKTLIKTIVTRINDI-NH2 was 0.021 µM; that for “VQDDTKTLIKTIVTRINDI-NH2 [T10 (original amino acid)]” was 0.0257 µM; that for VQDDVKTLIKTIVTRINDI-NH2 was 0.0207 µM.

Staying with this test, now noted: Table 1; L-amino acid peptides; cell line not named in Table 1 (same values in Table 2 are for MCF-7); read-out: IC50 values.
Take “IQKVQDDTKTLIKTIVTRINDISHTQSVSSKQ-NH2 [Full-length LPA-1 (3-34), reference compound]”: the IC50 is 0.0391 µM. The same measure, in the same setting: the value for “SRNVIQISNDLENLRDLLHVLAFSKS-NH2 [Full-length LPA-2 (70-95), reference compound]” was 0.033 µM.

Staying with this test, now noted: Table 2; MCF-7 cells; read-out: IC50 values.
Consider “IQKVQDDTKTLIKTIVTRINDISHTQSVSSKQ-NH2 [Full-length LPA-1 (3-34), reference compound]”, for which the IC50 came to 0.0391 µM.

Consider “SRNVIQISNDLENLRDLLHVLAFSKS-NH2 [Full-length LPA-2 (70-95), reference compound]”, for which the IC50 is 0.033 µM.

The term IC50 denotes the point on the concentration scale where inhibition reaches its midpoint.
